According to US20220386606A1, “SPECIFICALLY SUBSTITUTED 3-PHENYL-5-SPIROCYCLOPENTYL-3-PYRROLIN-2-ONES AND THEIR USE AS HERBICIDES” (Bayer Aktiengesellschaft, priority 2019, published 2022):

Experiments:
ALOMY [1] = assay: Pre-emergence herbicidal action against ALOMY; assay type: in vivo, Alopecurus myosuroides; settings: 320 g/ha, scored visually after 3 weeks vs untreated controls
Method in brief: (§1)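 Sandy loam, wood-fiber pots, seeds covered with soil. Spray onto soil surface: aqueous WP/EC, 600 to 800 L/ha, 0.2% wetting agent. Greenhouse 3 weeks; visual % score vs untreated controls.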

AVEFA [2] = assay: Pre-emergence herbicidal action against AVEFA; assay type: in vivo, Avena fatua; settings: 320 g/ha, scored visually after 3 weeks vs untreated controls
Method in brief: as §1

DIGSA [3] = assay: Pre-emergence herbicidal action against DIGSA; assay type: in vivo, Digitaria sanguinalis; settings: 320 g/ha, scored visually after 3 weeks vs untreated controls
Method in brief: as §1

ECHCG [4] = assay: Pre-emergence herbicidal action against ECHCG; assay type: in vivo, Echinochloa crus-galli; settings: 320 g/ha, scored visually after 3 weeks vs untreated controls
Method in brief: as §1

LOLRI [5] = assay: Pre-emergence herbicidal action against LOLRI (Table 8, titled post-emergence at 320 g/ha); assay type: in vivo, Lolium rigidum; settings: table stands in the pre-emergence section
Method in brief: as §1

SETVI [6] = assay: Pre-emergence herbicidal action against SETVI; assay type: in vivo, Setaria viridis; settings: 320 g/ha, scored visually after 3 weeks vs untreated controls
Method in brief: as §1

ABUTH [7] = assay: Pre-emergence herbicidal action against ABUTH; assay type: in vivo, Abutylon threophrasti; settings: 320 g/ha
Description: Seeds of monocotyledonous and dicotyledonous weed plants and crop plants are laid out in sandy loam soil in wood-fiber pots and covered with soil. The compounds of the invention, formulated in the form of wettable powders (WP) or as emulsion concentrates (EC), are then applied to the surface of the covering soil as aqueous suspension or emulsion at a water application rate equating to 600 to 800 L/ha with addition of 0.2% wetting agent.
After the treatment, the pots are placed in a greenhouse and kept under good growth conditions for the trial plants. The damage to the test plants is scored visually after a test period of 3 weeks by comparison with untreated controls (herbicidal activity in percent (%): 100% activity=the plants have died, 0% activity=like control plants).

AMARE = assay: Pre-emergence herbicidal action against AMARE; assay type: in vivo, Amaranthus retroflexus; settings: 320 g/ha
Method in brief: as §1

MATIN = assay: Pre-emergence herbicidal action against MATIN; assay type: in vivo; settings: 320 g/ha
Method in brief: as §1

POLCO = assay: Pre-emergence herbicidal action against POLCO; assay type: in vivo, Polygonum convolvulus; settings: 320 g/ha
Method in brief: as §1

VIOTR = assay: Pre-emergence herbicidal action against VIOTR; assay type: in vivo, Viola tricolor; settings: 320 g/ha
Method in brief: as §1

VERPE = assay: Pre-emergence herbicidal action against VERPE; assay type: in vivo, Veronica persica; settings: 320 g/ha
Method in brief: as §1

ALOMY [8] = assay: Post-emergence herbicidal action against ALOMY; assay type: in vivo, Alopecurus myosuroides; settings: 80 g/ha, visual assessment after about 3 weeks
Method in brief: (§2)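 Sow in sandy loam and grow in the greenhouse for 2 to 3 weeks to the one-leaf stage. Spray the compound as an aqueous suspension or emulsion with 0.2% wetting agent, 600 to 800 l/ha water rate. Hold about 3 weeks, then score damage visually versus controls.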

AVEFA [9] = assay: Post-emergence herbicidal action against AVEFA; assay type: in vivo, Avena fatua; settings: 80 g/ha, visual assessment after about 3 weeks
Method in brief: as §2

DIGSA [10] = assay: Post-emergence herbicidal action against DIGSA; assay type: in vivo, Digitaria sanguinalis; settings: 80 g/ha, visual assessment about 3 weeks after treatment vs untreated controls
Method in brief: as §2

ECHCG [11] = assay: Post-emergence herbicidal action against ECHCG; assay type: in vivo, Echinochloa crus-galli; settings: 80 g/ha, visual assessment about 3 weeks after treatment vs untreated controls
Method in brief: as §2

LOLRI [12] = assay: Post-emergence herbicidal action against LOLRI; assay type: in vivo, Lolium rigidum; settings: 80 g/ha, visual assessment about 3 weeks after treatment vs untreated controls
Method in brief: as §2

SETVI [13] = assay: Post-emergence herbicidal action against SETVI; assay type: in vivo, Setaria viridis; settings: 80 g/ha, visual assessment about 3 weeks after treatment vs untreated controls
Method in brief: as §2

ABUTH [14] = assay: Post-emergence herbicidal action against ABUTH; assay type: in vivo, Abutylon threophrasti; settings: 80 g/ha, visual assessment about 3 weeks after treatment vs untreated controls
Method in brief: as §2

## CC#Cc1cc(C)c(C2=C(OC(=O)OCC)C3(CCC(COCCOC)C3)NC2=O)c(Cl)c1 (centres unmarked) [Example P-75]
ALOMY [1]
  Pre-emergence action against ALOMY in %: 100%
AVEFA [2]
  Pre-emergence action against AVEFA in %: 100%
DIGSA [3]
  Pre-emergence action against DIGSA in %: 100%
ECHCG [4]
  Pre-emergence action against ECHCG in %: 100%
LOLRI [5]
  Pre-emergence herbicidal action against LOLRI in %: 100%
SETVI [6]
  Pre-emergence action against SETVI in %: 100%
ABUTH [7]
  Pre-emergence action against ABUTH in %: 80%
AMARE
  Pre-emergence action against AMARE in %: 100%
MATIN
  Pre-emergence action against MATIN in %: 90%
POLCO
  Pre-emergence action against POLCO in %: 80%
VIOTR
  Pre-emergence action against VIOTR in %: 100%
VERPE
  Pre-emergence action against VERPE in %: 90%
ALOMY [8]
  Post-emergence action against ALOMY in %: 100%
AVEFA [9]
  Post-emergence action against AVEFA in %: 90%
DIGSA [10]
  Post-emergence action against DIGSA in %: 90%
ECHCG [11]
  Post-emergence action against ECHCG in %: 100%
LOLRI [12]
  Post-emergence action against LOLRI in %: 100%
SETVI [13]
  Post-emergence action against SETVI in %: 100%

## CC#Cc1cc(C)c(C2=C(O)C3(CCC(COC)C3)NC2=O)c(Br)c1 (centres unmarked) [Example I-18]
ALOMY [1]
  Pre-emergence action against ALOMY in %: 100%
AVEFA [2]
  Pre-emergence action against AVEFA in %: 100%
DIGSA [3]
  Pre-emergence action against DIGSA in %: 100%
ECHCG [4]
  Pre-emergence action against ECHCG in %: 100%
LOLRI [5]
  Pre-emergence herbicidal action against LOLRI in %: 100%
SETVI [6]
  Pre-emergence action against SETVI in %: 100%
ABUTH [7]
  Pre-emergence action against ABUTH in %: 80%
AMARE
  Pre-emergence action against AMARE in %: 100%
POLCO
  Pre-emergence action against POLCO in %: 100%
VIOTR
  Pre-emergence action against VIOTR in %: 100%
ALOMY [8]
  Post-emergence action against ALOMY in %: 100%
AVEFA [9]
  Post-emergence action against AVEFA in %: 100%
DIGSA [10]
  Post-emergence action against DIGSA in %: 100%
ECHCG [11]
  Post-emergence action against ECHCG in %: 100%
LOLRI [12]
  Post-emergence action against LOLRI in %: 100%
SETVI [13]
  Post-emergence action against SETVI in %: 100%
ABUTH [14]
  Post-emergence action against ABUTH in %: 80%

## CC#Cc1cc(C)c(C2=C(OC(=O)OCC)C3(CCC(COCCC)C3)NC2=O)c(Cl)c1 (centres unmarked) [Example P-87]
ALOMY [1]
  Pre-emergence action against ALOMY in %: 100%
AVEFA [2]
  Pre-emergence action against AVEFA in %: 100%
DIGSA [3]
  Pre-emergence action against DIGSA in %: 100%
ECHCG [4]
  Pre-emergence action against ECHCG in %: 100%
LOLRI [5]
  Pre-emergence herbicidal action against LOLRI in %: 100%
SETVI [6]
  Pre-emergence action against SETVI in %: 100%
ABUTH [7]
  Pre-emergence action against ABUTH in %: 80%
POLCO
  Pre-emergence action against POLCO in %: 80%
VIOTR
  Pre-emergence action against VIOTR in %: 90%
VERPE
  Pre-emergence action against VERPE in %: 80%
ALOMY [8]
  Post-emergence action against ALOMY in %: 90%
AVEFA [9]
  Post-emergence action against AVEFA in %: 80%
DIGSA [10]
  Post-emergence action against DIGSA in %: 100%
ECHCG [11]
  Post-emergence action against ECHCG in %: 100%
LOLRI [12]
  Post-emergence action against LOLRI in %: 100%
SETVI [13]
  Post-emergence action against SETVI in %: 100%
ABUTH [14]
  Post-emergence action against ABUTH in %: 80%

## CC#Cc1cc(C)c(C2=C(OC(=O)C(C)C)C3(CCC(COC)C3)NC2=O)c(Br)c1 (centres unmarked) [Example P-32]
ALOMY [1]
  Pre-emergence action against ALOMY in %: 100%
AVEFA [2]
  Pre-emergence action against AVEFA in %: 90%
DIGSA [3]
  Pre-emergence action against DIGSA in %: 100%
ECHCG [4]
  Pre-emergence action against ECHCG in %: 100%
LOLRI [5]
  Pre-emergence herbicidal action against LOLRI in %: 100%
SETVI [6]
  Pre-emergence action against SETVI in %: 100%
ABUTH [7]
  Pre-emergence action against ABUTH in %: 80%
AMARE
  Pre-emergence action against AMARE in %: 90%
MATIN
  Pre-emergence action against MATIN in %: 80%
POLCO
  Pre-emergence action against POLCO in %: 80%
VIOTR
  Pre-emergence action against VIOTR in %: 100%
VERPE
  Pre-emergence action against VERPE in %: 90%
ALOMY [8]
  Post-emergence action against ALOMY in %: 100%
AVEFA [9]
  Post-emergence action against AVEFA in %: 90%
DIGSA [10]
  Post-emergence action against DIGSA in %: 100%
ECHCG [11]
  Post-emergence action against ECHCG in %: 100%
LOLRI [12]
  Post-emergence action against LOLRI in %: 100%
SETVI [13]
  Post-emergence action against SETVI in %: 100%
ABUTH [14]
  Post-emergence action against ABUTH in %: 90%
